Assay results as given in patent US20240101538A1, “PROTEIN-PROTEIN INTERACTION MODULATORS OF AURORA KINASE A AND THEIR USE IN THE PREVENTION AND/OR TREATMENT OF CANCER” (EBERHARD KARLS UNIVERSITÄT TÜBINGEN, priority 2020, published 2024).
Where two headings read alike, the source gives them in different places.

What was measured:
[1] = tested on: NMCdkn2a^ARF−/− cells; assay: Colony formation assay on NMCdkn2a^ARF−/− cells; format: cell-based, murine; conditions: 5 days, read-out: EC (NMCdkn2a^ARF−/−)
Source text: (§1) To evaluate the effect of small molecules equipped with R-spine interacting moieties, the inventors screened a focused library of proprietary p38a MAP-Kinase inhibitors which were equipped with R-spine interacting pharmacophores. To this end, the inventors utilized a screening system as developed in Dauch et al.^2 The screening system is based on colony formation assays of cell lines isolated from Nras-driven, Trp53-deficient murine HCCs, whose development is dependent on MYC (NMP53^−/− cells), as well as Nras-driven, Cdkn2a^ARF-deficient murine HCCs, which develop independently of MYC (NMCdkn2a^ARF−/− cells). Importantly, NMP53^−/− cells are sensitive to AURKA inhibitors, which induce a conformational shift in AURKA, whereas NMCdkn2a^ARF−/− are not sensitive to such compounds.
(§2) For Colony Formation Assays, cells were seeded at a density of 50 000 cells per 6 well and next day treated with a 2-fold dilution series of the indicated compounds or the highest corresponding DMSO concentration as control. After 5 days, the cells were fixed with a 10% formaldehyde solution for 30 min, washed once with water, stained with a 0.5% crystal violet solution for 30 min and washed twice with water. The compounds effective concentration (EC) was determined according to the lowest concentration in the dilution series, that inhibited cell growth substantially. The resulting benzamide containing hit structure 1, with a twofold selectivity towards NMP53^−/− cells (effective concentration on NMP53^−/− cells (EC): 2 μM, EC on Cdkn2a^ARF−/−: 4 μM, FIG. 1), served as the inventors' starting point for further compound development.

[2] = tested on: NMP53^−/− cells; assay: Colony formation assay on NMP53^−/− cells; format: cell-based, murine; conditions: colony formation assay; for minimal effective concentration: 5 days, read-out: EC (NMP53^−/−)
Source text: as §1, §2

[3] = Mus musculus, 120 h, lowest concentration of 2-fold dilution series that inhibited cell growth substantially

Question: Which results are given for `COc1cc(CNc2ccc(F)c(NC(=O)CCc3ccco3)c2)ccc1-c1cnn(C)c1` [Compound 128b, N-(2-fluoro-5-((3-methoxy-4-(1-methyl-1H-pyrazol-4-yl)benzyl)amino)phenyl)-3-(furan-2-yl)propanamide]?
Answer: minimal effective concentration ([1]; Mus musculus, 120 h): > 0.5 µM; minimal effective concentration ([2]; Mus musculus, 120 h): 0.062 µM

Question: What does the source list for `COc1cc(-c2cnn(C)c2)ccc1CNc1ccc(F)c(NC(=O)CCc2ccco2)c1` [Compound 128d, N-(2-fluoro-5-((2-methoxy-4-(1-methyl-1H-pyrazol-4-yl)benzyl)amino)phenyl)-3-(furan-2-yl)propanamide]?
Answer: minimal effective concentration ([1]; Mus musculus, 120 h): > 0.5 µM; minimal effective concentration ([2]; Mus musculus, 120 h): 0.031 µM

Question: For `CC(=O)Nc1cc(NCc2ccc(-c3cn[nH]c3)cc2)ccc1F` [Compound 2b, N-(5-((4-(1H-pyrazole-4-yl)benzyl)amino)-2-fluorophenyl)acetamide], which minimal effective concentration [1, 3] is on record?
Answer: > 4 µM

Question: And the minimal effective concentration ([1]; Mus musculus, 120 h)?
Answer: > 4 µM

Question: And the minimal effective concentration ([2]; Mus musculus, 120 h)?
Answer: > 4 µM

Question: Which minimal effective concentration ([1]; Mus musculus, 120 h) does the source give for `Cn1cc(-c2ccc(CNc3ccc(F)c(NC(=O)CCc4ccco4)c3)cc2F)cn1` [Compound 128a, N-(2-fluoro-5-((3-fluoro-4-(1-methyl-1H-pyrazol-4-yl)benzyl)amino)phenyl)-3-(furan-2-yl)propanamide] here?
Answer: 0.125 to 0.25 µM

Question: What about the minimal effective concentration ([2]; Mus musculus, 120 h) of the same compound?
Answer: 0.032 µM

Question: What does the source list for `O=C(CCc1ccc[nH]1)Nc1cc(NCc2ccc(-c3cn[nH]c3)cc2)ccc1F` [Compound 106q, N-(5-((4-(1H-Pyrazol-4-yl)benzyl)amino)-2-fluorophenyl)-3-(1H-pyrrol-2-yl)propanamide]?
Answer: minimal effective concentration ([1]; Mus musculus, 120 h): > 4 µM; minimal effective concentration ([2]; Mus musculus, 120 h): 1 to 2 µM

Question: `Nc1n[nH]cc1-c1ccc(CNc2ccc(F)c(NC(=O)CCc3ccco3)c2)cc1` [Compound 144, N-(5-((4-(3-Amino-1H-pyrazol-4-yl)benzyl)amino)-2-fluorophenyl)-3-(furan-2-yl)propanamide] was tested. Which minimal effective concentration ([1]; Mus musculus, 120 h) did it give?
Answer: > 1 µM

Question: What about the minimal effective concentration ([2]; Mus musculus, 120 h) of the same compound?
Answer: 0.25 µM

Question: For `NCCn1cc(-c2ccc(CNc3ccc(F)c(NC(=O)CCc4ccco4)c3)cc2)cn1` [Compound 167, N-(5-((4-(1-(2-Aminoethyl)-1H-pyrazol-4-yl)benzyl)amino)-2-fluorophenyl)-3-(furan-2-yl)propanamide], which minimal effective concentration ([1]; Mus musculus, 120 h) is on record?
Answer: 1 µM

Question: What about the minimal effective concentration ([2]; Mus musculus, 120 h) of the same compound?
Answer: 0.5 µM

Question: What does the source list for `O=C(CC1CC1)Nc1cc(NCc2cc(-c3cc4cccnc4[nH]3)ccn2)ccc1F` [Compound 8ok, N-(5-(((4-(1H-Pyrrolo[2,3-b]pyridin-2-yl)pyridin-2-yl)methyl)amino)-2-fluorophenyl)-2-cyclopropylacetamide]?
Answer: minimal effective concentration ([1]; Mus musculus, 120 h): 1 µM; minimal effective concentration ([2]; Mus musculus, 120 h): 0.5 µM

Question: Which minimal effective concentration ([1]; Mus musculus, 120 h) does the source give for `Cn1cc(-c2ccc(COc3ccc(F)c(NC(=O)CCc4ccccc4)c3)cc2)cn1` [Compound 124, N-(2-fluoro-5-((4-(1-methyl-1H-pyrazol-4-yl)benzyl)oxy)phenyl)-3-phenylpropanamide] here?
Answer: > 1 µM

Question: And the minimal effective concentration ([2]; Mus musculus, 120 h)?
Answer: 0.25 µM

Question: Which results are given for `O=C(CCc1ccco1)Nc1cc(NCc2ccc(-c3cn[nH]c3)cc2F)ccc1F` [Compound 127c, N-(2-fluoro-5-((2-fluoro-4-(1H-pyrazol-4-yl)benzyl)amino)phenyl)-3-(furan-2-yl)propanamide]?
Answer: minimal effective concentration ([1]; Mus musculus, 120 h): 0.5 to 1 µM; minimal effective concentration ([2]; Mus musculus, 120 h): 0.125 µM

Question: Which results are given for `Cn1cc(-c2ccc(CNc3ccc(F)c(NC(=O)CCc4ccc[nH]4)c3)cc2)cn1` [Compound 107q, N-(2-fluoro-5-((4-(1-methyl-1H-pyrazol-4-yl)benzyl)amino)phenyl)-3-(1H-pyrrol-2-yl)propanamide]?
Answer: minimal effective concentration ([1]; Mus musculus, 120 h): 4 µM; minimal effective concentration ([2]; Mus musculus, 120 h): 0.5 to 1 µM

Question: With `Cn1ncc(-c2ccc(CNc3ccc(F)c(NC(=O)CCc4ccco4)c3)cc2)c1N` [Compound 146, N-(5-((4-(5-Amino-1-methyl-1H-pyrazol-4-yl)benzyl)amino)-2-fluorophenyl)-3-(furan-2-yl)propanamide] as the compound, how does the minimal effective concentration ([1]; Mus musculus, 120 h) read?
Answer: > 1 µM

Question: And the minimal effective concentration ([2]; Mus musculus, 120 h)?
Answer: 0.125 µM

Question: What does the source list for `COc1cc(-c2cn[nH]c2)ccc1CNc1ccc(F)c(NC(=O)CCc2ccco2)c1` [Compound 127d, N-(2-fluoro-5-((2-methoxy-4-(1H-pyrazol-4-yl)benzyl)amino)phenyl)-3-(furan-2-yl)propanamide]?
Answer: minimal effective concentration ([1]; Mus musculus, 120 h): 2 µM; minimal effective concentration ([2]; Mus musculus, 120 h): 0.25 µM

Question: With `O=C(CCc1ccco1)Nc1cc(NCc2ccc(-c3cn[nH]c3)nc2)ccc1F` [Compound 127e, N-(5-(((6-(1H-Pyrazol-4-yl)pyridin-3-yl)methyl)amino)-2-fluorophenyl)-3-(furan-2-yl)-propanamide] as the compound, how does the minimal effective concentration ([1]; Mus musculus, 120 h) read?
Answer: > 2 µM

Question: What about the minimal effective concentration ([2]; Mus musculus, 120 h) of the same compound?
Answer: 0.5 µM

Question: For `Cc1noc(C)c1-c1ccc(CNc2ccc(F)c(NC(=O)CCc3ccco3)c2)cc1` [Compound 139, N-(5-((4-(3,5-Dimethylisoxazol-4-yl)benzyl)amino)-2-fluorophenyl)-3-(furan-2-yl)propanamide], which minimal effective concentration ([1]; Mus musculus, 120 h) is on record?
Answer: 1 µM

Question: What about the minimal effective concentration ([2]; Mus musculus, 120 h) of the same compound?
Answer: 0.5 µM

Question: With `Cc1ccc(CCC(=O)Nc2cc(NCc3ccc(-c4cn[nH]c4)cc3)ccc2F)o1` [Compound 106h, N-(5-((4-(1H-Pyrazol-4-yl)benzyl)amino)-2-fluorophenyl)-3-(5-methylfuran-2-yl)propanamide] as the compound, how does the minimal effective concentration ([1]; Mus musculus, 120 h) read?
Answer: 2 µM

Question: What about the minimal effective concentration ([2]; Mus musculus, 120 h) of the same compound?
Answer: 0.25 µM

Question: What does the source list for `Cn1cc(-c2ccc(CNc3ccc(F)c(NC(=O)CCc4ccco4)c3)c(F)c2)cn1` [Compound 128c, N-(2-fluoro-5-((2-fluoro-4-(1-methyl-1H-pyrazol-4-yl)benzyl)amino)phenyl)-3-(furan-2-yl)propanamide]?
Answer: minimal effective concentration ([1]; Mus musculus, 120 h): 0.5 to 1 µM; minimal effective concentration ([2]; Mus musculus, 120 h): 0.125 µM

Question: `CN(C(=O)CCc1ccco1)c1cc(NCc2ccc(-c3cnn(C)c3)cc2)ccc1F` [Compound 4, N-(2-fluoro-5-((4-(1-methyl-1H-pyrazole-4-yl)benzyl)amino)phenyl)-3-(furan-2-yl)-N-methylpropanamide] was tested. Which minimal effective concentration [1, 3] did it give?
Answer: > 4 µM

Question: And the minimal effective concentration ([1]; Mus musculus, 120 h)?
Answer: > 4 µM

Question: What about the minimal effective concentration [2, 3] of the same compound?
Answer: > 4 µM

Question: What about the minimal effective concentration ([2]; Mus musculus, 120 h) of the same compound?
Answer: > 4 µM

Question: What about the minimal effective concentration ([2]; lowest concentration of 2-fold dilution series that inhibited cell growth substantially) of the same compound?
Answer: >4 µM

Question: Which minimal effective concentration ([1]; Mus musculus, 120 h) does the source give for `Cn1ccc(Nc2ccc(CNc3ccc(F)c(NC(=O)CCc4ccco4)c3)cc2)n1` [Compound 155, N-(2-fluoro-5-((4-((1-methyl-1H-pyrazol-3-yl)amino)benzyl)amino)phenyl)-3-(furan-2-yl)propanamide] here?
Answer: > 1 µM

Question: And the minimal effective concentration ([2]; Mus musculus, 120 h)?
Answer: 0.25 µM

Question: Which results are given for `Cn1cc(-c2ccc(CNc3ccc(F)c(NC(=O)CCc4ccco4)c3)cc2)c(N)n1` [Compound 145, N-(5-((4-(3-Amino-1-methyl-1H-pyrazol-4-yl)benzyl)amino)-2-fluorophenyl)-3-(furan-2-yl)propanamide]?
Answer: minimal effective concentration ([1]; Mus musculus, 120 h): > 1 µM; minimal effective concentration ([2]; Mus musculus, 120 h): 0.25 µM

Question: Which minimal effective concentration [1, 3] does the source give for `CCCn1cc(-c2ccc(CNc3ccc(F)c(NC(=O)CCc4ccco4)c3)cc2)cn1` [Compound 3c, N-(2-fluoro-5-((4-(1-propyl-1H-pyrazole-4-yl)benzyl)amino)phenyl)-3-(furan-2-yl)propanamide] here?
Answer: > 4 µM

Question: And the minimal effective concentration ([1]; Mus musculus, 120 h)?
Answer: > 4 µM

Question: And the minimal effective concentration [2, 3]?
Answer: 4 µM

Question: And the minimal effective concentration ([2]; Mus musculus, 120 h)?
Answer: 4 µM

Question: And the “selectivity for NMP53^−/− cells” value ([2]; NMP53^−/− versus NMCdkn2a^ARF−/− cells)?
Answer: loss of selectivity

Question: Which results are given for `COc1cc(CNc2ccc(F)c(NC(=O)CCc3ccco3)c2)ccc1-c1cn[nH]c1` [Compound 127b, N-(2-fluoro-5-((3-methoxy-4-(1H-pyrazol-4-yl)benzyl)amino)phenyl)-3-(furan-2-yl)propanamide]?
Answer: minimal effective concentration ([1]; Mus musculus, 120 h): > 1 µM; minimal effective concentration ([2]; Mus musculus, 120 h): 0.25 µM

Question: `O=C(CC1CCCCC1)Nc1cc(NCc2cc(-c3cc4cccnc4[nH]3)ccn2)ccc1F` [Compound 8oj, N-(5-(((4-(1H-Pyrrolo[2,3-b]pyridin-2-yl)pyridin-2-yl)methyl)amino)-2-fluorophenyl)-2-cyclohexylacetamide] was tested. Which minimal effective concentration ([1]; Mus musculus, 120 h) did it give?
Answer: 1 µM

Question: And the minimal effective concentration ([2]; Mus musculus, 120 h)?
Answer: 0.5 µM

Question: `O=C(CCc1ccco1)Nc1cc(NCc2ccc(-c3cn[nH]c3)cc2)ccc1Cl` [Compound 113a, N-(5-((4-(1H-Pyrazol-4-yl)benzyl)amino)-2-chlorphenyl)-3-(furan-2-yl)propanamide] was tested. Which minimal effective concentration [1] did it give?
Answer: >1 µM

Question: And the minimal effective concentration [2]?
Answer: 0.5 µM

Question: Which minimal effective concentration ([1]; Mus musculus, 120 h) does the source give for `Cc1ccc(CCC(=O)Nc2cc(NCc3ccc(-c4cnn(C)c4)cc3)ccc2F)o1` [Compound 107h, N-(2-fluoro-5-((4-(1-methyl-1H-pyrazol-4-yl)benzyl)amino)phenyl)-3-(5-methylfuran-2-yl)propanamide] here?
Answer: 1 µM

Question: What about the minimal effective concentration ([2]; Mus musculus, 120 h) of the same compound?
Answer: 0.125 µM

Question: Which results are given for `Cn1cc(-c2ccc(CNc3ccc(F)c(NC(=O)Cc4ccco4)c3)cc2)cn1` [Compound 107m, N-(2-fluoro-5-((4-(1-methyl-1H-pyrazol-4-yl)benzyl)amino)phenyl)-2-(furan-2-yl)acetamide]?
Answer: minimal effective concentration ([1]; Mus musculus, 120 h): 16 µM; minimal effective concentration ([2]; Mus musculus, 120 h): 0.125 µM
